Measured values from ChEMBL document CHEMBL2346515, “Discovery of 4-alkylamino-7-aryl-3-cyanoquinoline LRRK2 kinase inhibitors” (Bioorg Med Chem Lett, 2013).

Assays:
[1] = target: Mitogen-activated protein kinase 1 (Homo sapiens) (UniProt P28482); assay: Inhibition of MAPK1 (unknown origin) at 10 uM by single point assay
[2] = target: RAC-alpha serine/threonine-protein kinase (Homo sapiens) (UniProt P31749); assay: Inhibition of AKT1 (unknown origin) at 10 uM by single point assay
[3] = target: Protein-tyrosine kinase 2-beta (Homo sapiens) (UniProt Q14289); assay: Inhibition of PTK2B (unknown origin) at 10 uM by single point assay
[4] = target: Platelet-derived growth factor receptor alpha (Homo sapiens) (UniProt P16234); assay: Inhibition of PDGFRalpha (unknown origin) at 10 uM by single point assay
Sequence of Platelet-derived growth factor receptor alpha (Homo sapiens) (P16234 whole entry): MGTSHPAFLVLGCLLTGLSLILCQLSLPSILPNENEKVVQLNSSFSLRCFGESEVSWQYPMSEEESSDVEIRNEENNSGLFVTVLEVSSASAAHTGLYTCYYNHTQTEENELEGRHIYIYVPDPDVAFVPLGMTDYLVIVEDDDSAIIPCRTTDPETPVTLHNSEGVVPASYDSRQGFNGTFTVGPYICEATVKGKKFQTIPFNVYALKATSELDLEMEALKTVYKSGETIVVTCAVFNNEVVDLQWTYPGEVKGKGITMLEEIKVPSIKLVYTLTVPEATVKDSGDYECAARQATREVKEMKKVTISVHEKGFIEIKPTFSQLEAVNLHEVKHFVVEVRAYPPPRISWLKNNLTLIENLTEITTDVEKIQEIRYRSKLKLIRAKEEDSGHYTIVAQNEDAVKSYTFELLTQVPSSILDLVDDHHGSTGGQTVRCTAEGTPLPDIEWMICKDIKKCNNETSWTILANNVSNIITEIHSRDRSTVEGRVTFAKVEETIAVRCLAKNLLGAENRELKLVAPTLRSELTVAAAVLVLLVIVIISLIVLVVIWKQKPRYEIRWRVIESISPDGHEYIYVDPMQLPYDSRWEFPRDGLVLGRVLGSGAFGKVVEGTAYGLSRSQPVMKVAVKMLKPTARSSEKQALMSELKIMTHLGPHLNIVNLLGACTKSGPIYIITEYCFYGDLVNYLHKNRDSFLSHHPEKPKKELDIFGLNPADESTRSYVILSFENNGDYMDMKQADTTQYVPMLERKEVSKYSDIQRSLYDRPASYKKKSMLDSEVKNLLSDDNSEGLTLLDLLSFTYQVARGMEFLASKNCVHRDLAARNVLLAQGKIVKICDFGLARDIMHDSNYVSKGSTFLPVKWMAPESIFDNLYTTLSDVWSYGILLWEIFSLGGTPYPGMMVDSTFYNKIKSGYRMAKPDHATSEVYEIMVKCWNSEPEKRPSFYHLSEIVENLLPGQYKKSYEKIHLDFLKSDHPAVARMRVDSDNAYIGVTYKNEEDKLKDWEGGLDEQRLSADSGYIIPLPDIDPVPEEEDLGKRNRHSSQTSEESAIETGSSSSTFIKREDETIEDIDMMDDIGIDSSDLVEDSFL

[5] = target: T1, Serine/threonine-protein kinase Chk1 (Homo sapiens) (UniProt O14757); assay: Inhibition of CHK1 (unknown origin) at 10 uM by single point assay
T1 sequence (whole entry): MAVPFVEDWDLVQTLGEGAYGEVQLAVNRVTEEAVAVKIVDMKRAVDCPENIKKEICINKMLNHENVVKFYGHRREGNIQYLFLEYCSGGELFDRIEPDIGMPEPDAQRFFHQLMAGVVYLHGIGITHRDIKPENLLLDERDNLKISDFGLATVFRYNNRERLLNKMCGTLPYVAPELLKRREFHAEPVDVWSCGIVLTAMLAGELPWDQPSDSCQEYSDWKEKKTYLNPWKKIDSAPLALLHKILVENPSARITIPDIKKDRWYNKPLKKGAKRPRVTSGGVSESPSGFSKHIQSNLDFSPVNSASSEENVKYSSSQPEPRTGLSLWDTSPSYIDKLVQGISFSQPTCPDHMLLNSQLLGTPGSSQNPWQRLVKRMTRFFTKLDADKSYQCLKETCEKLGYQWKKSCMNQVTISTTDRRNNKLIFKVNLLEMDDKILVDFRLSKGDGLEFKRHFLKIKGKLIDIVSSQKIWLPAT

[6] = target: cAMP-dependent protein kinase catalytic subunit alpha (Homo sapiens) (UniProt P17612); assay: Inhibition of PRKACA (unknown origin) at 10 uM by single point assay
[7] = target: Proto-oncogene tyrosine-protein kinase receptor Ret (Homo sapiens) (UniProt P07949); assay: Inhibition of RET (unknown origin) at 10 uM by single point assay
Sequence of Proto-oncogene tyrosine-protein kinase receptor Ret (Homo sapiens) (P07949 whole entry): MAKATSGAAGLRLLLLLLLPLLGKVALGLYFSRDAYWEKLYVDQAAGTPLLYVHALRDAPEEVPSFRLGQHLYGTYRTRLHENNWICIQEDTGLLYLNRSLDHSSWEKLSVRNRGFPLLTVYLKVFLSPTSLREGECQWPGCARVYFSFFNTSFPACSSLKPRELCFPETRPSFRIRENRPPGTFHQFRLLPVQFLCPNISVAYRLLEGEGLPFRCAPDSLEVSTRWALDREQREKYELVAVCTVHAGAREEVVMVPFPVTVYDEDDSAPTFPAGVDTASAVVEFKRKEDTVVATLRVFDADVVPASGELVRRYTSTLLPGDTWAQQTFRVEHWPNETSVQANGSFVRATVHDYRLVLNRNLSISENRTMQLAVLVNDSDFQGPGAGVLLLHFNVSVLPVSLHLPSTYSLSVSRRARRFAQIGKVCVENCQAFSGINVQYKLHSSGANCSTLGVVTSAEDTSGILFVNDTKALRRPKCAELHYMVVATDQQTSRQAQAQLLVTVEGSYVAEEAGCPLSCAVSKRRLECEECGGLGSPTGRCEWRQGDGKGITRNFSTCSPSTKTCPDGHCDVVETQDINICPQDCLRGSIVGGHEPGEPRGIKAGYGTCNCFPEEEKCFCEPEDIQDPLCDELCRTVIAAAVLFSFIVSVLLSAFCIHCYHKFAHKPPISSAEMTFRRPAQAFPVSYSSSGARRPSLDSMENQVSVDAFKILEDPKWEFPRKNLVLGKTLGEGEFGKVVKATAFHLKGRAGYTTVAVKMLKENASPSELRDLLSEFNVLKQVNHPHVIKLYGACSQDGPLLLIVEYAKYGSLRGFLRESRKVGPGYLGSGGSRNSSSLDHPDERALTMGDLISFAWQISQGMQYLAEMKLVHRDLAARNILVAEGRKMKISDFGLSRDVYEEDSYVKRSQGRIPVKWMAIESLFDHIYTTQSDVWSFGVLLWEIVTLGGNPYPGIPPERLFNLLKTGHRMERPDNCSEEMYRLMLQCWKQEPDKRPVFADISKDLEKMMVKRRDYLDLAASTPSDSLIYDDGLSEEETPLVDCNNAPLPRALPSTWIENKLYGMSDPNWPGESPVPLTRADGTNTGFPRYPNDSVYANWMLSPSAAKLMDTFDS

[8] = target: Serine/threonine-protein kinase MARK2 (Homo sapiens) (UniProt Q7KZI7); assay: Inhibition of MARK2 (unknown origin) at 10 uM by single point assay
Sequence of Serine/threonine-protein kinase MARK2 (Homo sapiens) (Q7KZI7 whole entry): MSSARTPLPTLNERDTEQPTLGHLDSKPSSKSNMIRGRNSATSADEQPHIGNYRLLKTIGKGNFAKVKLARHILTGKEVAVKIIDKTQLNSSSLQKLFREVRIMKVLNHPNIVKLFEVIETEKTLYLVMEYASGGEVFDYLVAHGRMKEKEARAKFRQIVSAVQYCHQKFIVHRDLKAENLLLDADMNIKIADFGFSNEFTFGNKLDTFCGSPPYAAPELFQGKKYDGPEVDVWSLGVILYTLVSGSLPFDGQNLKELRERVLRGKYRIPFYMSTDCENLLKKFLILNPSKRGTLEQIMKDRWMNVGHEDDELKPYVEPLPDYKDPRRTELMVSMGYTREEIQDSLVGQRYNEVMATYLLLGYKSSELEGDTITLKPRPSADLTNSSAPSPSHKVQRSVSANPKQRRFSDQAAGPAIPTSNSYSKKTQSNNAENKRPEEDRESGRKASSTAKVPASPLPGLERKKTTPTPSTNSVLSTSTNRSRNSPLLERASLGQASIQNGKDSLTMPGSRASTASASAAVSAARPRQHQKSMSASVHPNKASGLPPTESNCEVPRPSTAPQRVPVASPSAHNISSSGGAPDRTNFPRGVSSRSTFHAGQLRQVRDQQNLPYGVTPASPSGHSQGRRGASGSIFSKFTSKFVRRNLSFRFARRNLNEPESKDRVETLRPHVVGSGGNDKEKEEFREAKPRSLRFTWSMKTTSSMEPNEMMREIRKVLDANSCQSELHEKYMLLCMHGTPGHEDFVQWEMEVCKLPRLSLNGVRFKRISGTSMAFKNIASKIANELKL

[9] = target: RAF proto-oncogene serine/threonine-protein kinase (Homo sapiens) (UniProt P04049); assay: Inhibition of RAF1 (unknown origin) at 10 uM by single point assay
Sequence of RAF proto-oncogene serine/threonine-protein kinase (Homo sapiens) (P04049 whole entry): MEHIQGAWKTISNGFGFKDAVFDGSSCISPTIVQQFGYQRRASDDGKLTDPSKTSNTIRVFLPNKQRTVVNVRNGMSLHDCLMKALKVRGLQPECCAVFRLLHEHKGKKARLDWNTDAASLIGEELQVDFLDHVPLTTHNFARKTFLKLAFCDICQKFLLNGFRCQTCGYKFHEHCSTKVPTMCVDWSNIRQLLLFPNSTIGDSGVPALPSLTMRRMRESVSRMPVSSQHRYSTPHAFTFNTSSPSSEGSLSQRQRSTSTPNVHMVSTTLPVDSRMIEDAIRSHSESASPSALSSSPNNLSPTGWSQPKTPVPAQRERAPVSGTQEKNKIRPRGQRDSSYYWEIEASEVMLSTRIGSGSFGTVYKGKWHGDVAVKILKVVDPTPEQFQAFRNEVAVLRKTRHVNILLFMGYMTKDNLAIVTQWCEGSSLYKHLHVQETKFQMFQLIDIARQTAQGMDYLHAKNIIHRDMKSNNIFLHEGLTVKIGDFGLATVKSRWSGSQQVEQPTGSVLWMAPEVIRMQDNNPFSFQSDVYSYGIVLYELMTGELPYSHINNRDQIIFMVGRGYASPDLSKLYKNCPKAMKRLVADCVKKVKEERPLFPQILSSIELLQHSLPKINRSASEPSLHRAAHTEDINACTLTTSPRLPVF

[10] = target: Cyclin-dependent kinase 5/CDK5 activator 1 (Homo sapiens) (UniProt Q00535+Q15078); assay: Inhibition of CDK5/p25 (unknown origin) at 10 uM by single point assay; type: protein-complex assay
[11] = target: Receptor tyrosine-protein kinase erbB-4 (Homo sapiens) (UniProt Q15303); assay: Inhibition of ErbB4 (unknown origin) at 10 uM by single point assay
Brain = assay: Drug uptake in brain of mouse expressing mouse LRRK2 G2019S mutant at 100 mg/kg, po; type: ADME, organism-based; parameters: dose 100 mg/kg, route oral; details: in vivo
[12] = target: Mitogen-activated protein kinase 10 (Homo sapiens) (UniProt P53779); assay: Inhibition of MAPK10 (unknown origin) at 1 uM by single point assay
Sequence of Mitogen-activated protein kinase 10 (Homo sapiens) (P53779 whole entry): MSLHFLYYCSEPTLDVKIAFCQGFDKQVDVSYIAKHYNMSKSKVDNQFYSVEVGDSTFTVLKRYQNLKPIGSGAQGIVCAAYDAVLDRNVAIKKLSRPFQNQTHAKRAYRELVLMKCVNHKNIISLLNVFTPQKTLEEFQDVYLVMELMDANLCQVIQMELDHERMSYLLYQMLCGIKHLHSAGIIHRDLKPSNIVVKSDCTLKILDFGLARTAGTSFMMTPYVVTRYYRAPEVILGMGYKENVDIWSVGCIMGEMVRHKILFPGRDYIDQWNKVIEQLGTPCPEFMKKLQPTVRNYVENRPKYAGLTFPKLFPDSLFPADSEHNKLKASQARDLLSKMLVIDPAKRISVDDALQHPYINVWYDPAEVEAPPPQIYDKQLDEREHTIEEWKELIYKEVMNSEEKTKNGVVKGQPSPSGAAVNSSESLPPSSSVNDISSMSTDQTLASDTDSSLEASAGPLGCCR

Sequence of RAC-alpha serine/threonine-protein kinase (Homo sapiens) (P31749 whole entry): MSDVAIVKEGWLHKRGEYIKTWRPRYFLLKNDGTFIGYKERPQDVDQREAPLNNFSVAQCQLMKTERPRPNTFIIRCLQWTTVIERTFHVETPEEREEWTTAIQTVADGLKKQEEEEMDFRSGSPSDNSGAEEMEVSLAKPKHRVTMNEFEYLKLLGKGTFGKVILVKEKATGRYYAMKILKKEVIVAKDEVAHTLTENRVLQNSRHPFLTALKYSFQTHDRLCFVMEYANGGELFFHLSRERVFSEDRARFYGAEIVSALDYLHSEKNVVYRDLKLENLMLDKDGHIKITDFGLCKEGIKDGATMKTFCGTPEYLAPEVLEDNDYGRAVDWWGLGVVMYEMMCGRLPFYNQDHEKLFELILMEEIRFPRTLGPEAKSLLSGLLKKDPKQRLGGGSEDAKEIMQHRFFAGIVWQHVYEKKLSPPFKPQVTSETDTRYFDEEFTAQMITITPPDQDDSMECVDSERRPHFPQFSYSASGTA
Sequence of Mitogen-activated protein kinase 1 (Homo sapiens) (P28482 whole entry): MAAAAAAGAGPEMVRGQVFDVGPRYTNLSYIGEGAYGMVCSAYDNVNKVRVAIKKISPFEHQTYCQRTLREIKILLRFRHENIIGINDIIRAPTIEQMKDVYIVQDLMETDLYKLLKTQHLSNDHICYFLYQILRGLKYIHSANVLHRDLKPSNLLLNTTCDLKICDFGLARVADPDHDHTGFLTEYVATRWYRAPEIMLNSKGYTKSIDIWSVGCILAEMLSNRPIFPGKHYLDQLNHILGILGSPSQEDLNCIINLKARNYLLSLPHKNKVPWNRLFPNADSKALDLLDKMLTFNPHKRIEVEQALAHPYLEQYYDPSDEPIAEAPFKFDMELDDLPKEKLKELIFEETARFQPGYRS

Row | SMILES | inhibition [1] [%] | inhibition [2] [%] | inhibition [3] [%] | inhibition [4] [%] | inhibition [5] [%] | inhibition [6] [%] | inhibition [7] [%] | inhibition [8] [%] | inhibition [9] [%] | inhibition [10] [%] | inhibition [11] [%] | Drug uptake (Brain) [ng/mL] | inhibition [12] [%]
1 | C[C@@H](Nc1c(C#N)cnc2cc(-c3ccc(-n4ccoc4=O)cc3)ccc12)C1CC1 | -2 | -2 | 16 | 5 | 31 | -3 | 12 | 40 | 6 | 5 | 7 |  | 
2 | CC(C)Nc1c(C#N)cnc2cc(-c3cnn(C)c3)ccc12 |  |  |  |  |  |  |  |  |  |  |  | 81.1 | 4
